The source of these data is patent publication US9926281B2 (priority 2014, dated 2018).

One experiment addresses rnADAMTS-5 (1-564-6H) (Rattus norvegicus, UniProt Q6TY19). The conditions noted are these: read-out: Rat ADAMTS-5 potency IC50.
Experiment [1] has as its target T1, human ADAMTS-5 (Homo sapiens (Human), UniProt Q9UNA0). Particulars: read-out: hADAMTS-5 potency IC50.
In the next experiment the target is human TACE (Homo sapiens (Human), UniProt P78536). The conditions noted are these: read-out: TACE potency IC50.
The next experiment has as its target human MMP13 (Homo sapiens (Human), UniProt P45452). Particulars: read-out: hMMP-13 potency IC50.
The target of experiment [2] is T1, human ADAMTS-5. The conditions noted are these: read-out: hADAMTS-5 potency IC50. This is another data set of the same source.
Experimental: Finally, the fluorescence is read on the Envision (Perkin Elmer) after an incubation of 90 min at 37° C.
The target in a further experiment is human MMP14 (Homo sapiens (Human), UniProt P50281). The conditions noted are these: read-out: hMMP-14 potency IC50.

Read-outs that look alike come from different tables or passages of the source.

human TACE, sequence (P78536 whole entry, looked up, change not shown): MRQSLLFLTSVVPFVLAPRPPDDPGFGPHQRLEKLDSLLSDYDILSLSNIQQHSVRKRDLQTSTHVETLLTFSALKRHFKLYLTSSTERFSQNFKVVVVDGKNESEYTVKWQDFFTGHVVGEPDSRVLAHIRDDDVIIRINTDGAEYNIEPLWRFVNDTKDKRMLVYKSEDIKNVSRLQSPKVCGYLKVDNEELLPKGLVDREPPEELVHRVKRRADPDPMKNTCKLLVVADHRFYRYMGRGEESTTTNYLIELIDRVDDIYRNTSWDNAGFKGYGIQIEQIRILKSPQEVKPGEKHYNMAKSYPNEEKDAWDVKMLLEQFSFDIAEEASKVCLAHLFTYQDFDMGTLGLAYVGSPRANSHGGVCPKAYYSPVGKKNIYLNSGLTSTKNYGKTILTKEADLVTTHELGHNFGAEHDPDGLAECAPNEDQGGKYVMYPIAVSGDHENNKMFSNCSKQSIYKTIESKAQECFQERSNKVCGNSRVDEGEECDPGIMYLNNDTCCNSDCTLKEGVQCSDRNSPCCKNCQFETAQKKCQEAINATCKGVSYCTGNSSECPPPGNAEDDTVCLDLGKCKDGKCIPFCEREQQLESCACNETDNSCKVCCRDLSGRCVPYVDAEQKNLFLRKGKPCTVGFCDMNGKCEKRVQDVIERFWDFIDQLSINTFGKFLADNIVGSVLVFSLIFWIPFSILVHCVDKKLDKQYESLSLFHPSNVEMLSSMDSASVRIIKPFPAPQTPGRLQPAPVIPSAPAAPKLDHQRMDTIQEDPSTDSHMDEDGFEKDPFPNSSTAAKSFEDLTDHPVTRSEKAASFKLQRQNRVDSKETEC
T1 sequence (Q9UNA0 262-930): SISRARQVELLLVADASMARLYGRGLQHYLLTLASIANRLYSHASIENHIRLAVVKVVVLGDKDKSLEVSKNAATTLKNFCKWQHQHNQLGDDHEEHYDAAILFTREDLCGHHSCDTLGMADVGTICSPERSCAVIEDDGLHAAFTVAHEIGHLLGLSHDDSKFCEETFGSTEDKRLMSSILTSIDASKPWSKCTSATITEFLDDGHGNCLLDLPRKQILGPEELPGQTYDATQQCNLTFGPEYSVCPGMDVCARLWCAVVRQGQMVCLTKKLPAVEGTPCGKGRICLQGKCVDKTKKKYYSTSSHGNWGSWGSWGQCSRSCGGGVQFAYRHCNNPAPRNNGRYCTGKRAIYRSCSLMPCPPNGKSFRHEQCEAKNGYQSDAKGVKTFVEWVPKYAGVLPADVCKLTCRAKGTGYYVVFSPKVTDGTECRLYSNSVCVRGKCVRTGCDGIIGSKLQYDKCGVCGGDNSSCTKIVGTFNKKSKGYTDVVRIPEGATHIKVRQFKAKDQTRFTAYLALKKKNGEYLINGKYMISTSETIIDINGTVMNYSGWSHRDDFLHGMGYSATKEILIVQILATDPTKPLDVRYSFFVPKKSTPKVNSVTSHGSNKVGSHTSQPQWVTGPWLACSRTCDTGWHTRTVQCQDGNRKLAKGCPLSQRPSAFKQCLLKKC
Experimental for human MMP13: Human MMP13 is preactivated by incubated the enzyme in the same buffer complemented with 1 mM freshly prepared p-Aminophenylmercuric acetate (AMPA) for 1 hour at 37° C.

For `Cc1ccc(F)cc1N1CCN(C(=O)CCC2(c3cccnc3)NC(=O)NC2=O)CC1` (stereo not drawn) [compound 92, 5-[3-[4-(5-fluoro-2-methyl-phenyl)piperazin-1-yl]-3-oxo-propyl]-5-(3-pyridyl)imidazolidine-2,4-dione], the IC50 (usually the midpoint of a concentration-inhibition curve) was 64 nM at rnADAMTS-5 (1-564-6H), 63 nM at human ADAMTS-5 [1], 1050 nM on human TACE and more than 20000 nM at human MMP13.
For `Cc1cc(Cl)c(F)cc1N1CCN(C(=O)CCC2(C)NC(=O)NC2=O)CC1` (stereo not drawn) [compound 93, 5-[3-[4-(4-chloro-5-fluoro-2-methyl-phenyl)piperazin-1-yl]-3-oxo-propyl]-5-methyl-imidazolidine-2,4-dione] the same measures were more than 4000 nM, more than 4080 nM, more than 3530 nM and more than 20000 nM.
Regarding `Cc1cc(F)c(F)cc1N1CCN(C(=O)CCC2(C)NC(=O)NC2=O)CC1` (stereo not drawn) [compound 94, 5-[3-[4-(4,5-difluoro-2-methyl-phenyl)piperazin-1-yl]-3-oxo-propyl]-5-methyl-imidazolidine-2,4-dione], the IC50 on rnADAMTS-5 (1-564-6H) is 3020 nM; on human ADAMTS-5 [1], 2130 nM; on human TACE, more than 4000 nM; on human MMP13, more than 20000 nM.
With `O=C1NC(=O)C(CCC(=O)N2CCN(c3ccc(F)c(F)c3)CC2)(c2ccccn2)N1` (stereo not drawn) [compound 95, 5-[3-[4-(3,4-difluorophenyl)piperazin-1-yl]-3-oxo-propyl]-5-(2-pyridyl)imidazolidine-2,4-dione], the IC50 was 40 nM at rnADAMTS-5 (1-564-6H), 48 nM at human ADAMTS-5 [1], more than 4000 nM on human TACE and 2200 nM at human MMP13.
Turning to `O=C1NC(=O)C(CCC(=O)N2CCN(c3ccc(F)c(Cl)c3)CC2)(c2ccccn2)N1` (stereo not drawn) [compound 96, 5-[3-[4-(3-chloro-4-fluoro-phenyl)piperazin-1-yl]-3-oxo-propyl]-5-(2-pyridyl)imidazolidine-2,4-dione], the IC50 is 57 nM at rnADAMTS-5 (1-564-6H), 49 nM on human ADAMTS-5 [1], 3590 nM at human TACE and 1060 nM on human MMP13.
The corresponding values for `Cc1c(F)cccc1N1CCN(C(=O)CCC2(c3cccnc3)NC(=O)NC2=O)CC1` (stereo not drawn) [compound 97, 5-[3-[4-(3-fluoro-2-methyl-phenyl)piperazin-1-yl]-3-oxo-propyl]-5-(3-pyridyl)imidazolidine-2,4-dione] are 148 nM, 168 nM, more than 4000 nM and more than 20000 nM.
As to `Cc1c(F)cccc1N1CCN(C(=O)CCC2(c3ccccn3)NC(=O)NC2=O)CC1` (stereo not drawn) [compound 100, 5-[3-[4-(3-fluoro-2-methyl-phenyl)piperazin-1-yl]-3-oxo-propyl]-5-(2-pyridyl)imidazolidine-2,4-dione], the IC50 is 163 nM at rnADAMTS-5 (1-564-6H), 185 nM on human ADAMTS-5 [1], more than 4000 nM at human TACE and more than 20000 nM on human MMP13.
The corresponding values for `O=C1NC(=O)C(CCC(=O)N2CCN(c3cccc(F)c3)CC2)(c2ccccn2)N1` (stereo not drawn) [compound 103, 5-[3-[4-(3-fluorophenyl)piperazin-1-yl]-3-oxo-propyl]-5-(2-pyridyl)imidazolidine-2,4-dione] are 24 nM, 28 nM, 4100 nM and 2000 nM.
For the compound `Cc1ccc(F)cc1N1CCN(C(=O)CCC2(c3ccccn3)NC(=O)NC2=O)CC1` (stereo not drawn) [compound 104, 5-[3-[4-(5-fluoro-2-methyl-phenyl)piperazin-1-yl]-3-oxo-propyl]-5-(2-pyridyl)imidazolidine-2,4-dione], the IC50 on rnADAMTS-5 (1-564-6H) is 41 nM; on human ADAMTS-5 [1], 43 nM; on human TACE, 461 nM; at human MMP13 it was more than 20000 nM.
The corresponding values for `CC1CN(C(=O)CCC2(c3cccnc3)NC(=O)NC2=O)CCN1c1ccccc1` (stereo not drawn) [compound 105, 5-[3-(3-methyl-4-phenyl-piperazin-1-yl)-3-oxo-propyl]-5-(3-pyridyl)imidazolidine-2,4-dione] are 162 nM, 226 nM, more than 20000 nM and more than 20000 nM.
With `CC1CN(C(=O)CCC2(C3CC3)NC(=O)NC2=O)CCN1c1ccccc1` (stereo not drawn) [compound 106, 5-cyclopropyl-5-[3-(3-methyl-4-phenyl-piperazin-1-yl)-3-oxo-propyl]imidazolidine-2,4-dione], the concentration for half-maximal inhibition (IC50) at rnADAMTS-5 (1-564-6H) is 222 nM; at human ADAMTS-5 [1] it was 233 nM; at human TACE, more than 20000 nM; on human MMP13 it was more than 20000 nM.
In the case of `CC(C)(C)C1(CCC(=O)N2CCN(c3cccc(Cl)c3)CC2)NC(=O)NC1=O` (stereo not drawn) [compound 107, 5-tert-butyl-5-[3-[4-(3-chlorophenyl)piperazin-1-yl]-3-oxo-propyl]imidazolidine-2,4-dione], the IC50 was 147 nM at rnADAMTS-5 (1-564-6H), 172 nM at human ADAMTS-5 [1], more than 4000 nM at human TACE and more than 20000 nM on human MMP13.
For `O=C1NC(=O)C(CCC(=O)N2CCN(c3cccc(Cl)c3)CC2)(C2CCCC2)N1` (stereo not drawn) [compound 109, 5-[3-[4-(3-chlorophenyl)piperazin-1-yl]-3-oxo-propyl]-5-cyclopentyl-imidazolidine-2,4-dione], the IC50 on rnADAMTS-5 (1-564-6H) was 182 nM; at human ADAMTS-5 [1], 261 nM; on human TACE, 5260 nM; at human MMP13 it was more than 4000 nM.
On to `O=C1NC(=O)C(CCC(=O)N2CCN(c3cc(Cl)cc(Cl)c3)CC2)(c2cccnc2)N1` (stereo not drawn) [compound 111, 5-[3-[4-(3,5-dichlorophenyl)piperazin-1-yl]-3-oxo-propyl]-5-(3-pyridyl)imidazolidine-2,4-dione], for which the IC50 was 46 nM on rnADAMTS-5 (1-564-6H), 42 nM at human ADAMTS-5 [1], 963 nM at human TACE and more than 20000 nM on human MMP13.
For `O=C1NC(=O)C(CCC(=O)N2CCN(c3ccc(F)c(F)c3)CC2)(C2CC2)N1` (stereo not drawn) [compound 113, 5-cyclopropyl-5-[3-[4-(3,4-difluorophenyl)piperazin-1-yl]-3-oxo-propyl]imidazolidine-2,4-dione] the same measures were 91 nM, 104 nM, more than 20000 nM and 3620 nM.
Take `O=C1NC(=O)C(CCC(=O)N2CCN(c3ccc(F)c(Cl)c3)CC2)(C2CC2)N1` (stereo not drawn) [compound 114, 5-[3-[4-(3-chloro-4-fluoro-phenyl)piperazin-1-yl]-3-oxo-propyl]-5-cyclopropyl-imidazolidine-2,4-dione]: the IC50 at rnADAMTS-5 (1-564-6H) was 62 nM; at human ADAMTS-5 [1] it was 67 nM; at human TACE, more than 20000 nM; at human MMP13, 2580 nM.
As to `CC(CC1(C2CC2)NC(=O)NC1=O)C(=O)N1CCN(c2cccc(Cl)c2)CC1` (stereo not drawn) [compound 121, 5-[3-[4-(3-chlorophenyl)piperazin-1-yl]-2-methyl-3-oxo-propyl]-5-cyclopropyl-imidazolidine-2,4-dione], the IC50 was 24 nM on rnADAMTS-5 (1-564-6H); 15 nM at human ADAMTS-5 [2]; 15 nM at human ADAMTS-5 [1]; 1100 nM at human TACE; 70.6 nM at human MMP13.
Consider `C[C@H]1CN(C(=O)CCC2(c3ccccc3)NC(=O)NC2=O)CCN1c1ccccc1` (stereo partly drawn) [compound 137, 5-[3-[(3S)-3-methyl-4-phenyl-piperazin-1-yl]-3-oxo-propyl]-5-phenyl-imidazolidine-2,4-dione], for which the IC50 on rnADAMTS-5 (1-564-6H) is 249 nM; at human ADAMTS-5 [1], 240 nM; at human TACE, more than 20000 nM; on human MMP13 it was more than 20000 nM.
With `O=C1NC(=O)C(CCC(=O)N2CCN(c3ccccc3)CC2)(C2CC2)N1` (stereo not drawn) [compound 138, 5-cyclopropyl-5-[3-oxo-3-(4-phenylpiperazin-1-yl)propyl]imidazolidine-2,4-dione], the IC50 at rnADAMTS-5 (1-564-6H) was 107 nM; on human ADAMTS-5 [1], 101 nM; at human TACE it was more than 20000 nM; at human MMP13, more than 4000 nM.
In the case of `COCC1(CC(C)C(=O)N2CCN(c3cc(Cl)cc(Cl)c3C)[C@@H](C)C2)NC(=O)NC1=O` (stereo partly drawn) [compound 227, 5-[3-[(3S)-4-(3,5-dichloro-2-methyl-phenyl)-3-methyl-piperazin-1-yl]-2-methyl-3-oxo-propyl]-5-(methoxymethyl)imidazolidine-2,4-dione], the IC50 on human MMP14 was more than 20000 nM.
With `CC(CC1NC(=O)NC1=O)C(=O)N1CCN(c2ccc(F)c(F)c2)[C@@H](C)C1` (stereo partly drawn) [compound 251, 5-[3-[(3S)-4-(3,4-difluorophenyl)-3-methyl-piperazin-1-yl]-2-methyl-3-oxo-propyl]imidazolidine-2,4-dione], the IC50 on human ADAMTS-5 [2] is 94 nM; at human TACE, more than 12000 nM; on human MMP14 it was more than 4000 nM.
For `C[C@H]1CN(C(=O)CCC2(C3CC3)NC(=O)NC2=O)CCN1c1cccnc1` (stereo partly drawn) [compound 259, 5-cyclopropyl-5-[3-[(3S)-3-methyl-4-(3-pyridyl)piperazin-1-yl]-3-oxo-propyl]imidazolidine-2,4-dione] the same measures were 224 nM, more than 20000 nM and more than 20000 nM.
With `C[C@H]1CN(C(=O)CCC2(C3CC3)NC(=O)NC2=O)CCN1c1cncc(Cl)c1` (stereo partly drawn) [compound 260, 5-[3-[(3S)-4-(5-chloro-3-pyridyl)-3-methyl-piperazin-1-yl]-3-oxo-propyl]-5-cyclopropyl-imidazolidine-2,4-dione], the results for the IC50 on human ADAMTS-5 [2], on human TACE and at human MMP14 were 126 nM, more than 20000 nM and more than 20000 nM, respectively.
Consider `C[C@H]1CN(C(=O)CCC2(C3CC3)NC(=O)NC2=O)CCN1c1cncc(F)c1` (stereo partly drawn) [compound 261, 5-cyclopropyl-5-[3-[(3S)-4-(5-fluoro-3-pyridyl)-3-methyl-piperazin-1-yl]-3-oxo-propyl]imidazolidine-2,4-dione], for which the results for the IC50 at human ADAMTS-5 [2], at human TACE and at human MMP14 were 165 nM, more than 20000 nM and more than 20000 nM, respectively.
